Experimental data taken from PubChem BioAssay (NCI).
Values joined by “and” are separate entries in the source; they are usually repeats but may differ in a detail not shown here. Identical values can stand only once.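 Method: 48-hour compound exposure of cells in 96-well plates, five concentrations, linear interpolation of endpoints. GI50 is the concentration that inhibits growth by half. TGI is the concentration that stops growth completely.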

Tests used:
Assay in all cases: inhibition of tumour cell growth, NCI panel, 48 h
SNB-19 CNS = test system: SNB-19 CNS
HT29 colon = test system: HT29 colon
BT-549 breast = test system: BT-549 breast
HOP-92 NSCLC = test system: HOP-92 NSCLC
HS 578T breast = test system: HS 578T breast
SN12C renal = test system: SN12C renal
SK-MEL-5 melanoma = test system: SK-MEL-5 melanoma
SW-620 colon = test system: SW-620 colon
SK-MEL-28 melanoma = test system: SK-MEL-28 melanoma
ACHN renal = test system: ACHN renal

Structure (SMILES)	TGI (SNB-19 CNS) [µM]	TGI (HT29 colon)	TGI (BT-549 breast) [µM]	TGI (HOP-92 NSCLC)	TGI (HS 578T breast) [µM]	TGI (SN12C renal) [µM]	TGI (SK-MEL-5 melanoma) [µM]	TGI (SW-620 colon) [µM]	TGI (SK-MEL-28 melanoma) [µM]	TGI (ACHN renal)	GI50 (SNB-19 CNS) [µM]	GI50 (HT29 colon) [µM]	GI50 (BT-549 breast) [µM]	GI50 (HOP-92 NSCLC) [µM]	GI50 (HS 578T breast) [µM]	GI50 (SN12C renal) [µM]	GI50 (SK-MEL-5 melanoma) [µM]	GI50 (SW-620 colon) [µM]	GI50 (SK-MEL-28 melanoma) [µM]	GI50 (ACHN renal) [µM]
Nc1ncnc2c1nc(Cl)n2C1OC2COP(=O)(O)OC2C1O (stereo not given)	> 300	> 300 µM	> 300	229 µM and > 92.9 µM	> 280	> 300	> 300	> 300	> 300	> 300 µM	–	–	–	–	–	–	–	–	–	–
N[C@@H]1CCCC[C@H]1N.O=C([O-])C(=O)[O-].[Pt+4]	> 100	> 8.25 µM	> 100	> 74 µM	> 100	> 100	13.3	> 83.7	24.2	45.3 µM	9.85	0.175	12.3	25.5	> 100	2.56	1.14	0.0468	2.63	2.15
COc1cc(-c2nn(-c3cccc(NC(=O)Nc4cc(C(F)(F)F)cc(C(F)(F)F)c4)c3)cc2-c2ccncc2)ccc1Cl	4.25	1.68 µM	3.45	0.64 µM	8.81	1.96	1.3	2.94	1.94	16.9 µM	0.59	0.619	1.26	0.107	1.16	0.471	0.629	0.494	0.758	0.309
COc1ccc(/C=C/C(=O)c2ccc(SC)cc2)cc1OC	56.9	87.5 µM	6.66	31.2 µM	99.3	26.5	31.7	> 100	39.8	27.6 µM	21	4.57	2.86	13.7	16.6	13	14.5	4.44	18.2	11.7
COC1CC2CCC(C)C(O)(O2)C(=O)C(=O)N2CCCCC2C(=O)OC(C(C)CC2CCC(O)C(OC)C2)CC(=O)C(C)C=C(C)C(O)C(OC)C(=O)C(C)CC(C)/C=C/C=C/C=C1C (stereo not given)	17	10.8 µM	11	7.48 µM	24.4	14.6	9.24	14	11.2	21.1 µM	1.45	–	0.00609	0.0107	0.00742	5.24	–	5.39	3.23	2.55
Cc1cc2nc3c4cc(N)ccc4n(CCN(C)C)c3nc2cc1C	11.4	6.59 µM	8.73	5.05 µM	9.81	11.7	2.88	10.9	5.77	9.7 µM	0.669	0.478	2.23	0.527	2.06	0.484	1.48	0.381	2.08	0.351
CC1(C)N=C(N)N=C(N)N1c1ccc(OCCCCOc2ccc(S(=O)(=O)F)cc2)c(Cl)c1	17.8	13.4 µM	17.3	10.9 µM	34.3	15.2	8.5	14	28.8	> 100 µM	0.259	0.0519	1.32	0.671	4.85	0.0575	0.346	0.0379	0.559	1.68
C=C1C(=O)O[C@H]2[C@H]1CC/C(Cn1cc(-c3cc(C(F)(F)F)cc(C(F)(F)F)c3)nn1)=C\CC[C@@]1(C)O[C@@H]21	3.58	0.486 µM	0.509	1.44 µM	4.23	2.38	2.78	0.399	1.65	0.325 µM	1.71	0.19	0.178	0.344	1.03	0.702	1.47	0.19	0.465	0.16
O=C(Nc1cc(Cl)cc(Cl)c1)c1ccc(NC2=C(Cl)C(=O)N(Cc3ccc(Cl)cc3Cl)C2=O)cc1	83.4	> 100 µM	7.22	27.5 µM	54.7	60.6	2.65	13.1	75.8	48.9 µM	21.4	49.3	1.57	9.32	8.12	24.9	1.16	1.38	21.4	19
NC(N)=N/N=C\c1cccc(OCc2ccccc2)c1	23.3	4.01 µM	28.4	7.47 µM	28.7	17.6	3.12	3.33	3.41	18.5 µM	10.3	1.83	15	2.05	9.12	4.33	1.66	1.68	1.66	4.29
CCOc1ccc(-c2nonc2NC(=O)c2cccc(C)c2)cc1OCC	> 100	> 100 µM	> 100	59.1 µM	> 100	> 100	> 100	> 100	> 100	> 100 µM	34.9	> 100	> 100	21.1	> 100	> 100	> 100	> 100	> 100	> 100
Cc1ccccc1N=Nc1ccc(NC(=O)c2ccnn2C)c(C)c1	> 100	> 100 µM	> 100	34.9 µM	> 100	> 100	72.2	> 100	> 100	> 100 µM	24.4	> 100	8.53	6.99	22.1	97.1	4.99	> 100	> 100	23.9
O=C(CNc1ccc2c(c1)C(=O)c1ccccc1C2=O)Nc1ccc2c(c1)C(=O)c1ccccc1C2=O	2.9	1.69 µM	1.99	2.98 µM	13.2	1	0.669	0.371	3.13	3.01 µM	1.45	0.451	0.641	1.39	2.29	0.293	0.25	0.186	1.68	1.58
CC1=C2C[C@H]3[C@@H](CC[C@@H]4CC(NS(C)(=O)=O)CC[C@@]43C)[C@@H]2CC[C@@]2(C1)O[C@@H]1C[C@H](C)CN[C@H]1[C@H]2C (stereo not given in full)	27	11.3 µM	26	12.7 µM	37.5	23.4	5.63	28.9	11.3	14.6 µM	12.5	3.5	12	1.15	11.8	10.4	2.18	13.8	4.81	3.85
O=C(/C=C/c1cccnc1)NCCCCC1CCCN(C(=O)c2ccccc2)C1 (stereo not given)	> 100	> 100 µM	> 100	> 100 µM	> 100	> 100	> 100	> 100	> 100	> 100 µM	–	< 0.01	–	> 100	4.45	< 0.01	< 0.0273	< 0.01	> 100	> 91
COc1cc2cc(Oc3ccc(NC(=O)Nc4cccc(C(F)(F)F)c4)cc3)c(C)nc2cc1OC	15	6.26 µM	6.18	3.96 µM	4.22	16.3	2.66	11.1	8.37	7.71 µM	2.19	2.05	1.43	1.26	1.44	2.06	1.08	2.28	1.97	1.64
O=c1c2ccccc2n(C[C@H]2CO2)c2ccccc12	7.79	7.91 µM	6.08	5.27 µM	5.89	7.05	2.9	12.7	5.76	3.9 µM	2.3	2.24	1.91	2.03	2.05	1.8	1.52	0.828	2.4	0.886
Ic1ccccc1-c1ccccc1	> 100	> 100 µM	> 100	> 100 µM	> 100	> 100	> 100	> 100	> 100	> 100 µM	> 100	> 100	> 100	13.2	> 100	> 100	> 100	> 100	> 100	> 100
Nc1c(Br)cc(Br)c2c1[nH]c(=O)c1ccccc12	57.5	> 100 µM	41	8.57 µM	30	> 100	> 100	> 100	> 100	10.4 µM	10.2	> 29.7	7.05	1.96	3.07	8.09	34	23.1	> 45.9	3.18
Cc1c(-c2c(-c3ccc(F)o3)sc3ncnc(O[C@H](Cc4ccccc4OCc4ccnn4CC(F)(F)F)C(=O)O)c23)ccc(OCCN2CCN(C)CC2)c1Cl	12.9	9.41 µM	5.65	9.7 µM	9.42	9.62	6.25	17.2	7.82	19 µM	4.7	4.54	2.13	4.57	1.53	4.05	3.13	5.88	3.84	6.46
CCOC(=O)c1[nH]c(Br)c(-c2ccc(Br)cc2)c1Br	10.4	1.32 µM and 1.62 µM	–	7.86 µM and 7.98 µM	13.2	4.75	19.1	14	22.1	3.63 µM and 8.45 µM	0.454	–	8.52	1.58	–	0.502	–	–	–	0.929
